Measured values published in ChEMBL document CHEMBL1212749, “In vitro activity of mirincamycin (U24729A) against Plasmodium falciparum isolates from Gabon” (Antimicrob Agents Chemother, 2010).
pIC50: −log10 of the molar value.

What was measured:
[1] = test system: Plasmodium falciparum; assay: Ratio of IC50 for Plasmodium falciparum 3D7A after 6 days to IC50 for Plasmodium falciparum 3D7A after 3 days by HRP2 enzyme-linked immunosorbent assay; type: functional
[2] = test system: Plasmodium falciparum; assay: Antimalarial activity against Plasmodium falciparum clinical isolate after 6 days by HRP2 enzyme-linked immunosorbent assay; type: functional, organism-based; details: 144 h

Structure (SMILES)	Ratio IC50 [1]	pIC50 [2]
CCCCCC1CN[C@@H](C(=O)N[C@H]([C@H]2O[C@H](SC)[C@H](O)[C@@H](O)[C@H]2O)[C@@H](C)Cl)C1 (stereo partly drawn)	> 10000	
CCC[C@@H]1C[C@@H](C(=O)N[C@@H]([C@H]2O[C@H](SC)[C@H](O)[C@@H](O)[C@H]2O)[C@H](C)Cl)N(C)C1 [CLINDAMYCIN]		7.94
C[C@H]1c2cccc(O)c2C(=O)C2=C(O)[C@]3(O)C(=O)C(C(N)=O)=C(O)[C@@H](N(C)C)[C@@H]3[C@@H](O)[C@@H]21 [DOXYCYCLINE]		6.14
